Each block holds one compound with its values, some of them ahead of it. The source made the active and inactive calls. The rule behind the calls is not given here.
Key:
RKO [1] = test: Antiproliferative activity against human RKO cells incubated for 48 hrs by MTS assay; type: functional, cell-based
HCT-116 [2] = test: Antiproliferative activity against human HCT-116 cells incubated for 48 hrs by MTS assay; type: functional, cell-based; conditions: HCT-116, 48 h
RKO [3] = test: Inhibition of DNA replication in human RKO cells assessed as reduction in EdU positive cells incubated for 48 hrs by EdU staining based fluorescence microscopic analysis; type: functional, cell-based; conditions: dose 1.25-5 µM
HCT-116 [4] = test: Inhibition of colony formation in human HCT-116 cells by crystal violet staining based light microscopic analysis; type: functional, cell-based; conditions: dose 1.25-5 µM
[5] = Acute toxicity in BALB/c mouse assessed as morphological change in kidney at 10 to 90 mg/kg, po measured for 7 days by H and E staining based analysis; type: organism-based; conditions: in vivo, 168 h, dose 10-90 mg/kg, time 7 day
HCT-116 [6] = test: Antitumor activity against human HCT-116 cells xenografted in BALB/c mouse assessed as increase in DNA damage by measuring gamma-H2AX level at 10 to 40 mg/kg, ip administered for 2 weeks by immunohistochemical analysis; type: functional, organism-based; conditions: dose 10-40 mg/kg
[7] = Acute toxicity in BALB/c mouse assessed as change in spleen weight at 10 to 90 mg/kg, po measured for 7 days; type: organism-based; conditions: in vivo, 168 h, dose 10-90 mg/kg, time 7 day
RKO [8] = test: Inhibition of colony formation in human RKO cells assessed as reduction in colony formation at 5 uM by crystal violet staining based light microscopic analysis; type: functional
HCT-116 [9] = test: Inhibition of colony formation in human HCT-116 cells assessed as reduction in colony formation at 5 uM by crystal violet staining based light microscopic analysis; type: functional
[10] = Acute toxicity in BALB/c mouse assessed as change in heart weight at 10 to 90 mg/kg, po measured for 7 days; type: organism-based; conditions: in vivo, 168 h, dose 10-90 mg/kg, time 7 day
[11] = Bioavailability in male Sprague-Dawley rat […] by UHPLC-MS/MS analysis; type: ADME, organism-based; conditions: in vivo
HCT-116 [12] = test: Inhibition of XRCC2 expression in human HCT-116 cells incubated for 48 hrs Western blot analysis; type: functional, cell-based; conditions: dose 1.25-5 µM
[13] = Acute toxicity in BALB/c mouse assessed as change in creatine level at 10 to 90 mg/kg, po measured for 7 days; type: organism-based; conditions: in vivo, 168 h, dose 10-90 mg/kg, time 7 day
[14] = Half life in male Sprague-Dawley rat at 10 mg/kg, po measured upto 48 hrs by UHPLC-MS/MS analysis; type: ADME, organism-based; conditions: in vivo
HCT-116 [15] = test: Antitumor activity against human HCT-116 cells xenografted in BALB/c mouse assessed as inhibition of tumor growth at 10 to 40 mg/kg, ip administered for 2 weeks; type: functional, organism-based; conditions: dose 10-40 mg/kg
HCT-116 [16] = test: Inhibition of DNA replication in human HCT-116 cells assessed as reduction in EdU positive cells incubated for 48 hrs by EdU staining based fluorescence microscopic analysis; type: functional, cell-based; conditions: dose 1.25-5 µM
[17] = Toxicity in BALB/c mouse implanted with human HCT-116 cells assessed as morphological changes in tumor t at 10 to 40 mg/kg, ip administered for 2 weeks by H and E staining based analysis; type: organism-based; conditions: in vivo, 336 h, dose 10-40 mg/kg
HCT-116 [18] = test: Induction of cell cycle arrest in human HCT-116 cells at 5 uM incubated for 2 to 48 hrs by PI staining based flow cytometry analysis; type: functional; conditions: time 2-48 hrs
HCT-116 [19] = test: Antitumor activity against human HCT-116 cells xenografted in BALB/c mouse assessed as inhibition of tumor proliferation at 10 to 40 mg/kg, ip administered for 2 weeks by Ki67 staining based immunohistochemical analysis; type: functional, organism-based; conditions: dose 10-40 mg/kg
[20] = Cmax in male Sprague-Dawley rat at 10 mg/kg, po measured upto 48 hrs by UHPLC-MS/MS analysis; type: ADME, organism-based; conditions: in vivo
RKO [21] = test: Inhibition of colony formation in human RKO cells by crystal violet staining based light microscopic analysis; type: functional, cell-based; conditions: dose 1.25-5 µM
[22] = AUC (0 to t) in male Sprague-Dawley rat at 2 mg/kg, iv measured upto 8 hrs by UHPLC-MS/MS analysis; type: ADME, organism-based; conditions: in vivo
HCT-116 [23] = test: Inhibition of BRCA1 expression in human HCT-116 cells assessed as reduction in fluorescence intensity at 1.25 to 5 uM incubated for 48 hrs immunofluorescence analysis; type: functional, cell-based; conditions: dose 1.25-5 µM
[24] = Acute toxicity in BALB/c mouse assessed as morphological change in liver at 10 to 90 mg/kg, po measured for 7 days by H and E staining based analysis; type: organism-based; conditions: in vivo, 168 h, dose 10-90 mg/kg, time 7 day
[25] = AUC (0 to t) in male Sprague-Dawley rat at 10 mg/kg, po measured upto 48 hrs by UHPLC-MS/MS analysis; type: ADME, organism-based; conditions: in vivo
[26] = AUC (0 to infinity) in male Sprague-Dawley rat at 10 mg/kg, po measured upto 48 hrs by UHPLC-MS/MS analysis; type: ADME, organism-based; conditions: in vivo
[27] = Acute toxicity in BALB/c mouse assessed as change in kidney weight at 10 to 90 mg/kg, po measured for 7 days; type: organism-based; conditions: in vivo, 168 h, dose 10-90 mg/kg, time 7 day
[28] = Half life in male Sprague-Dawley rat at 2 mg/kg, iv measured upto 8 hrs by UHPLC-MS/MS analysis; type: ADME, organism-based; conditions: in vivo
[29] = Acute toxicity in BALB/c mouse assessed as change in lung weight at 10 to 90 mg/kg, po measured for 7 days; type: organism-based; conditions: in vivo, 168 h, dose 10-90 mg/kg, time 7 day
[30] = Cmax in male Sprague-Dawley rat at 2 mg/kg, iv measured upto 8 hrs by UHPLC-MS/MS analysis; type: ADME, organism-based; conditions: in vivo
[31] = Tmax in male Sprague-Dawley rat at 2 mg/kg, iv measured upto 8 hrs by UHPLC-MS/MS analysis; type: ADME, organism-based; conditions: in vivo
[32] = Tmax in male Sprague-Dawley rat at 10 mg/kg, po measured upto 48 hrs by UHPLC-MS/MS analysis; type: ADME, organism-based; conditions: in vivo
HCT-116 [33] = test: Antitumor activity against human HCT-116 cells xenografted in BALB/c mouse assessed as inhibition of BRCA1 expression at 10 to 40 mg/kg, ip administered for 2 weeks by Western blot analysis; type: functional, organism-based; conditions: dose 10-40 mg/kg
[34] = Oral bioavailability in male Sprague-Dawley rat at 10 mg/kg measured upto 48 hrs by UHPLC-MS/MS analysis; type: ADME, organism-based; conditions: in vivo
[35] = Acute toxicity in BALB/c mouse assessed as change in body weight at 10 to 90 mg/kg, po measured for 7 days; type: organism-based; conditions: in vivo, 168 h, dose 10-90 mg/kg, time 7 day
[36] = AUC (0 to infinity) in male Sprague-Dawley rat at 2 mg/kg, iv measured upto 8 hrs by UHPLC-MS/MS analysis; type: ADME, organism-based; conditions: in vivo
HCT-116 [37] = test: Antitumor activity against human HCT-116 cells xenografted in BALB/c mouse assessed as inhibition of XRCC2 expression at 10 to 40 mg/kg, ip administered for 2 weeks by Western blot analysis; type: functional, organism-based; conditions: dose 10-40 mg/kg
[38] = Acute toxicity in BALB/c mouse assessed as change in ALT level at 10 to 90 mg/kg, po measured for 7 days; type: organism-based; conditions: in vivo, 168 h, dose 10-90 mg/kg, time 7 day
[39] = Acute toxicity in BALB/c mouse assessed as change in AST level at 10 to 90 mg/kg, po measured for 7 days; type: organism-based; conditions: in vivo, 168 h, dose 10-90 mg/kg, time 7 day
HCT-116 [40] = test: Inhibition of BRCA1 expression in human HCT-116 cells incubated for 48 hrs Western blot analysis; type: functional, cell-based; conditions: dose 1.25-5 µM
[41] = Toxicity in BALB/c mouse implanted with human HCT-116 cells assessed as change in body weight at 10 to 40 mg/kg, ip administered for 2 weeks; type: organism-based; conditions: in vivo, 336 h, dose 10-40 mg/kg
HCT-116 [42] = test: Induction of DNA damage in human HCT-116 cells assessed as increase in 53BP1 foci positive cells at 1.25 to 5 uM incubated for 48 hrs by immunofluorescence staining based analysis; type: functional, cell-based; conditions: dose 1.25-5 µM
[43] = Acute toxicity in BALB/c mouse assessed as change in liver weight at 10 to 90 mg/kg, po measured for 7 days; type: organism-based; conditions: in vivo, 168 h, dose 10-90 mg/kg, time 7 day

Compound: COc1cc(/C=C/C(=O)c2c(OC)cc3c(c2O)C=CC(C)(C)O3)cc(OC)c1
IC50 (RKO [1]): 25.1 µM
IC50 (HCT-116 [2]): 24.9 µM

Compound: COc1cc2c(c(O)c1C(=O)/C=C/c1cn(C)c3ccccc13)C=CC(C)(C)O2
IC50 (RKO [1]): > 200 µM
IC50 (HCT-116 [2]): > 200 µM

Compound: COc1cc2c(c(OC)c1C(=O)/C=C/c1ccc(Cl)cc1)C=CC(C)(C)O2
IC50 (RKO [1]): 9.04 µM
IC50 (HCT-116 [2]): > 12.7 µM

Compound: COc1cc2c(c(O)c1C(=O)/C=C/c1ccccc1N1CCN(C)CC1)C=CC(C)(C)O2
inhibition (RKO [3]): Dose-dependent-effect
inhibition (HCT-116 [4]): Dose-dependent-effect
Activity [5]: Non-toxic
Activity (HCT-116 [6]): Active
Activity [7]: Non-toxic
inhibition at 5 µM (RKO [8]): 2%
inhibition at 5 µM (HCT-116 [9]): 2%
Activity [10]: Non-toxic
bioavailability [11]: 37.5%
inhibition (HCT-116 [12]): Dose-dependent-effect
Activity [13]: Non-toxic
half-life [14]: 69.3 h
Activity (HCT-116 [15]): Active
inhibition (HCT-116 [16]): Dose-dependent-effect
Activity [17]: Non-toxic
Activity (HCT-116 [18]): Active
Activity (HCT-116 [19]): Active
Cmax [20]: 152 ng/mL
inhibition (RKO [21]): Dose-dependent-effect
IC50 (RKO [1]): 4.01 µM
AUC(0-t) at 8 h [22]: 866 µg·h/mL
IC50 (HCT-116 [2]): 5.4 µM
inhibition (HCT-116 [23]): Active
Activity [24]: Non-toxic
AUC(0-t) at 48 h [25]: 1270 µg·h/mL
AUC(0-inf) [26]: 3 µg·h/mL
Activity [27]: Non-toxic
t1/2 [28]: 0.82 h
Activity [29]: Non-toxic
Cmax [30]: 359 ng/mL
Tmax [31]: 2.28 min
Tmax [32]: 4 h
Activity (HCT-116 [33]): Active
bioavailability [34]: 37.5%
Activity [35]: Non-toxic
AUC [36]: 1.61 µg·h/mL
Activity (HCT-116 [37]): Active
Activity [38]: Non-toxic
Activity [39]: Non-toxic
inhibition (HCT-116 [40]): Dose-dependent-effect
Activity [41]: Non-toxic
Activity (HCT-116 [42]): Active
Activity [43]: Non-toxic

Now from value to compound, other results behind:

IC50 (HCT-116 [2]): 25.9 µM
Compound: COc1cc2c(c(O)c1C(=O)/C=C/c1ccc(O)cc1)C=CC(C)(C)O2 [XANTHOHUMOL C]
IC50 (RKO [1]): 28.5 µM

IC50 (HCT-116 [2]): 74.2 µM
Compound: COc1cc2c(c(O)c1C(=O)/C=C/c1cccc(C(C)(C)C)c1)C=CC(C)(C)O2
IC50 (RKO [1]): 89.8 µM

IC50 (HCT-116 [2]): 36.7 µM
Compound: COc1cc2c(c(O)c1C(=O)/C=C/c1cccc(Br)c1)C=CC(C)(C)O2
IC50 (RKO [1]): 35.9 µM

IC50 (HCT-116 [2]): 117 µM
Compound: CCOc1ccc(Br)cc1/C=C/C(=O)c1c(OC)cc2c(c1O)C=CC(C)(C)O2
IC50 (RKO [1]): 165 µM

IC50 (HCT-116 [2]): > 22.4 µM
Compound: COc1cc2c(c(O)c1C(=O)/C=C/c1ccc3[nH]ccc3c1)C=CC(C)(C)O2
IC50 (RKO [1]): 19.2 µM
